# Assays:
# PRMT5 [1] = biological target: T1, PRMT5 (Homo sapiens, UniProt O14744); assay: PRMT5 biochemical IC50 assay with MTA as cofactor; details: PRMT5, MTA as cofactor; read-out: MTA IC50
# T1 construct: purchased Viva (custom protein)
# PRMT5 [2] = biological target: T1, PRMT5; assay: PRMT5 biochemical IC50 assay with SAM as cofactor; details: PRMT5, SAM as cofactor; read-out: SAM IC50
# [3] = system: HAP1 MTAP-deleted cell line; assay: Viability assay, MTAP-deleted cell line; assay type: cell-based; details: Homo sapiens, HAP1, viability IC50, MTAP-deleted cell line; read-out: HAP1 MTAP deleted viability
# Source text: Table 1 additionally indicates IC50 values in a viability assay for the MTAP-deleted cell line (column 10), indicating the effect of treatment with compound on cell survival.
# [4] = system: HAP1 MTAP-deleted cell line; assay: SDMA in-cell western assay, HAP1 MTAP-deleted; assay type: cell-based; details: for IC50: Homo sapiens, HAP1, SDMA in-cell western, HAP1 MTAP-deleted, read-out: HAP 1 MTAP deleted IC50; for MTAP intact/deleted ratio: IC50 ratio HAP1 MTAP-intact / HAP1 MTAP-deleted, SDMA in-cell western
# Summary of the method: (§1)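 Isogenic HAP1 pair: the MTAP-intact line expresses endogenous MTAP, and the deleted line is MTAP-null. Symmetric dimethylarginine was detected by in-cell western and IC50 values derived for each line.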
# PRMT5 [5] = biological target: T1, PRMT5; assay: PRMT5 biochemical IC50 assay with no cofactor; details: PRMT5, no cofactor; read-out: No Cofactor/rel IC50
# Source text: Table 1 indicates IC50 values (μM) against PRMT5 for exemplary compounds in the presence of SAM as cofactor, with no cofactor, and with MTA as cofactor, respectively (columns 4-6). […] Ki values can be calculated from the IC50 values as described in the Examples section. As detailed in the Examples section, for the assay performed in the presence of SAM, IC50=Ki×1.5 (Ki=IC50/1.5).
# [6] = system: HAP1 MTAP-intact cell line; assay: SDMA in-cell western assay, HAP1 MTAP-intact; assay type: cell-based; details: Homo sapiens, HAP1, SDMA in-cell western, HAP1 MTAP-intact; read-out: MTAP HAP1 intact IC50
# Summary of the method: as §1
# T1 sequence (O14744 whole entry): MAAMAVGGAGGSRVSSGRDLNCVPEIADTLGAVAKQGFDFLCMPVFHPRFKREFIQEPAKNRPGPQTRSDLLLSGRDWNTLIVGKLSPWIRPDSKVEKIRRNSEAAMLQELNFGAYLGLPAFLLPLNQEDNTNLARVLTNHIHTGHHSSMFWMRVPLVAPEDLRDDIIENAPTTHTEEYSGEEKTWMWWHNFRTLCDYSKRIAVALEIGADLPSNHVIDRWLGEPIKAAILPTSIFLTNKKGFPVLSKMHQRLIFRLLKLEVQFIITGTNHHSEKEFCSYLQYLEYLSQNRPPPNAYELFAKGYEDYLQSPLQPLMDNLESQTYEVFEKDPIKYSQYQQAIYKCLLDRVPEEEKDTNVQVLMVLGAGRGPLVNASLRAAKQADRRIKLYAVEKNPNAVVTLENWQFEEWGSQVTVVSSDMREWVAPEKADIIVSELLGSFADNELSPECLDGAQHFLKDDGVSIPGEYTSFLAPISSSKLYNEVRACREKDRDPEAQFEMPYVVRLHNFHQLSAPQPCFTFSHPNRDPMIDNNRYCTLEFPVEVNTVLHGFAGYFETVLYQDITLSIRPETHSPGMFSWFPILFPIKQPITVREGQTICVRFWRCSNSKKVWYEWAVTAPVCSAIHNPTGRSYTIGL
# T1 sequence (Q9BQA1 whole entry partner): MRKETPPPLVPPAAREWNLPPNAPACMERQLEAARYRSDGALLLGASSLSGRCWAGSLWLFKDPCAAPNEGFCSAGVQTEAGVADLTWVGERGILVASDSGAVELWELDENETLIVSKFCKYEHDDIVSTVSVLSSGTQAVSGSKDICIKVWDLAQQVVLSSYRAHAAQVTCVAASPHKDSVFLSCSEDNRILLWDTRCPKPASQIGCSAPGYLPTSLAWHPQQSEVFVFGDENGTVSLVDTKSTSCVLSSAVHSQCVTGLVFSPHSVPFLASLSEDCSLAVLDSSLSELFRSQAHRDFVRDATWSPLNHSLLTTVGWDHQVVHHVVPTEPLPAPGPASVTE
SMILES,IC50 (PRMT5 [1]) [nM],IC50 (PRMT5 [2]) [nM],IC50 [4] [nM],IC50 (PRMT5 [5]) [nM],IC50 [6] [nM],IC50 [3] [nM],MTAP intact/deleted ratio [4]
"Cc1cc(NC(=O)C(=O)N2C[C@H](C)CC[C@H]2c2cccc(S(C)(=O)=O)c2)cnc1C (racemic) [Compound 648, N-(5,6-dimethyl-3-pyridyl)-2-[(2R,5S)-5-methyl-2-(3-methylsulfonylphenyl)-1-piperidyl]-2-oxo-acetamide]",50 to 500,50 to 500,> 1000,50 to 500,> 1000,> 10000,B (an IC50 ratio greater than or equal to 3 fold but lower than 10 fold)
"C[C@@H]1CC[C@@H](c2ccc(S(N)(=O)=O)cc2)N(C(=O)C(=O)Nc2cncc(C(N)=O)c2)C1 (racemic) [Compound 651, rac 5-[[2-[(2S,5R)-5-methyl-2-(4-sulfamoylphenyl)-1-piperidyl]-2-oxo-acetyl]amino]pyridine-3-carboxamide]",50 to 500,50 to 500,> 1000,50 to 500,> 1000,> 10000,C (an IC50 ratio of less than 3 fold)
"Cc1cc(NC(=O)C(=O)N2C[C@H](C)CC[C@H]2c2ccc(N)cn2)cnc1N (racemic) [Compound 658, N-(6-amino-5-methyl-3-pyridyl)-2-[2-(5-amino-2-pyridyl)-5-methyl-1-piperidyl]-2-oxo-acetamide]",50 to 500,50 to 500,100 to 1000,50 to 500,> 1000,> 10000,A (an IC50 ratio greater than or equal to 10 fold)
"C[C@@H]1CC[C@@H](c2cccc(S(N)(=O)=O)c2)N(C(=O)C(=O)Nc2cncc(C(N)=O)c2)C1 (racemic) [Compound 661, 5-(2-(5-methyl-2-(3-sulfamoylphenyl)piperidin-1-yl)-2-oxoacetamido)nicotinamide]",< 50,50 to 500,> 1000,50 to 500,> 1000,> 10000,B (an IC50 ratio greater than or equal to 3 fold but lower than 10 fold)
"Cc1cc(NC(=O)C(=O)N2C[C@H](C)CC[C@H]2c2cccc(S(C)(=O)=O)c2)cnc1N (racemic) [Compound 667, N-(6-amino-5-methyl-3-pyridyl)-2-[(2R,5S)-5-methyl-2-(3-methylsulfonylphenyl)-1-piperidyl]-2-oxo-acetamide]",50 to 500,50 to 500,100 to 1000,50 to 500,> 1000,1000 to 10000,A (an IC50 ratio greater than or equal to 10 fold)
"CNS(=O)(=O)c1ccc([C@@H]2CC[C@@H](C)CN2C(=O)C(=O)Nc2cnc(N)c(C)c2)cc1 (racemic) [Compound 668, N-(6-amino-5-methyl-3-pyridyl)-2-[(2S,5R)-5-methyl-2-[4-(methylsulfamoyl)phenyl]-1-piperidyl]-2-oxo-acetamide]",< 50,50 to 500,100 to 1000,50 to 500,100 to 1000,1000 to 10000,B (an IC50 ratio greater than or equal to 3 fold but lower than 10 fold)
"NC(=O)c1cncc(NC(=O)C(=O)N2C[C@H](c3cc[nH]n3)CC[C@H]2c2ccccc2)c1 (racemic) [Compound 669, rac-5-(2-oxo-2-((2R,5S)-2-phenyl-5-(1H-pyrazol-5-yl)piperidin-1-yl)acetamido)nicotinamide]",50 to 500,> 500,> 1000,> 500,> 1000,> 10000,C (an IC50 ratio of less than 3 fold)
"C[C@@H]1CC[C@@H](c2ccc3[nH]c(=O)ccc3c2)N(C(=O)C(=O)Nc2cncc(C(N)=O)c2)C1 (racemic) [Compound 670, rac-5-(2-((2R,5S)-5-Methyl-2-(2-oxo-1,2-dihydroquinolin-6-yl)piperidin-1-yl)-2-oxoacetamido)nicotinamide]",< 50,50 to 500,100 to 1000,50 to 500,> 1000,1000 to 10000,A (an IC50 ratio greater than or equal to 10 fold)
"Cc1cc(NC(=O)C(=O)N2C[C@H](C)CC[C@H]2c2ccc3[nH]c(=O)ccc3c2)cnc1N (racemic) [Compound 671, rac-N-(6-Amino-5-methyl-3-pyridyl)-2-[5-methyl-2-(2-oxo-1H-quinolin-6-yl)-1-piperidyl]-2-oxo-acetamide]",< 50,50 to 500,< 100,50 to 500,100 to 1000,< 1000,B (an IC50 ratio greater than or equal to 3 fold but lower than 10 fold)
"Cc1cc(NC(=O)C(=O)N2C[C@H](C)CC[C@H]2c2cnc3scnc3c2)cnc1N (racemic) [Compound 685, N-(6-amino-5-methyl-3-pyridyl)-2-[(2S,5R)-5-methyl-2-thiazolo[5,4-b]pyridin-6-yl-1-piperidyl]-2-oxo-acetamide]",50 to 500,> 500,100 to 1000,50 to 500,> 1000,> 10000,A (an IC50 ratio greater than or equal to 10 fold)
"Cc1cc(NC(=O)C(=O)N2C[C@H](C)CC[C@H]2c2cccc(S(N)(=O)=O)c2)cnc1N (racemic) [Compound 688, N-(6-amino-5-methyl-3-pyridyl)-2-[(2S,5R)-5-methyl-2-(3-sulfamoylphenyl)-1-piperidyl]-2-oxo-acetamide]",< 50,50 to 500,100 to 1000,50 to 500,> 1000,1000 to 10000,A (an IC50 ratio greater than or equal to 10 fold)

# The next lines start with results.
IC50 (PRMT5 [1]) [nM],IC50 (PRMT5 [2]) [nM],IC50 [4] [nM],IC50 (PRMT5 [5]) [nM],IC50 [6] [nM],SMILES,IC50 [3] [nM],MTAP intact/deleted ratio [4]
50 to 500,> 500,> 1000,50 to 500,> 1000,"Cc1cc(NC(=O)C(=O)N2C[C@H](C)CC[C@H]2c2ccc(S(C)(=O)=O)cc2)cnc1C (racemic) [Compound 649, N-(5,6-dimethyl-3-pyridyl)-2-[(2R,5S)-5-methyl-2-(4-methylsulfonylphenyl)-1-piperidyl]-2-oxo-acetamide]",> 10000,B (an IC50 ratio greater than or equal to 3 fold but lower than 10 fold)
50 to 500,50 to 500,> 1000,50 to 500,> 1000,"CNS(=O)(=O)c1ccc([C@@H]2CC[C@@H](C)CN2C(=O)C(=O)Nc2cncc(C(N)=O)c2)cc1 (racemic) [Compound 652, rac 5-[[2-[(2S,5R)-5-methyl-2-[4-(methylsulfamoyl)phenyl]-1-piperidyl]-2-oxo-acetyl]amino]pyridine-3-carboxamide]",> 10000,C (an IC50 ratio of less than 3 fold)
50 to 500,50 to 500,100 to 1000,50 to 500,> 1000,"Cc1cc(NC(=O)C(=O)N2C[C@H](C)CC[C@H]2c2ccc(S(N)(=O)=O)cc2)cnc1N (racemic) [Compound 662, N-(6-amino-5-methyl-3-pyridyl)-2-[(2S,5R)-5-methyl-2-(4-sulfamoylphenyl)-1-piperidyl]-2-oxo-acetamide]",> 10000,A (an IC50 ratio greater than or equal to 10 fold)
50 to 500,> 500,> 1000,> 500,> 1000,"C[C@@H]1CC[C@@H](c2ccccc2C#N)N(C(=O)C(=O)Nc2cncc(C(N)=O)c2)C1 (racemic) [Compound 664, 5-[[2-[(2R,5S)-2-(2-Cyanophenyl)-5-methyl-1-piperidyl]-2-oxo-acetyl]amino]pyridine-3-carboxamide]",> 10000,B (an IC50 ratio greater than or equal to 3 fold but lower than 10 fold)
< 50,50 to 500,> 1000,50 to 500,> 1000,"CNS(=O)(=O)c1cccc([C@@H]2CC[C@@H](C)CN2C(=O)C(=O)Nc2cncc(C(N)=O)c2)c1 (racemic) [Compound 666, 5-[[2-[(2S,5R)-5-methyl-2-[3-(methylsulfamoyl)phenyl]-1-piperidyl]-2-oxo-acetyl]amino]pyridine-3-carboxamide]",> 10000,
50 to 500,50 to 500,100 to 1000,50 to 500,> 1000,"Cc1cc(NC(=O)C(=O)N2C[C@H](C)CC[C@H]2c2ccc(C(C)(C)O)cc2)cnc1N (racemic) [Compound 672, N-(6-amino-5-methyl-3-pyridyl)-2-[(2R,5S)-2-[4-(1-hydroxy-1-methyl-ethyl)phenyl]-5-methyl-1-piperidyl]-2-oxo-acetamide]",1000 to 10000,B (an IC50 ratio greater than or equal to 3 fold but lower than 10 fold)

# Reference: patent publication US11999727B2 (Tango Therapeutics, Inc., priority 2020, dated 2024)
